Results from ChEMBL document CHEMBL3124755, “Synthesis and tumor inhibitory activity of novel coumarin analogs targeting angiogenesis and apoptosis” (Eur J Med Chem, 2014).
Calls of active or inactive are those of the source. The calls are words filed in the database; no cut-off is given here.

How the values were obtained:
[1] = (§1) Cytotoxicity against mouse DLA cells after 48 hrs by LDH release assay; format: functional, cell-based
[2] = Cytotoxicity against mouse DLA cells after 48 hrs by MTT assay; format: functional, cell-based
[3] = Cytotoxicity against mouse DLA cells after 48 hrs by trypan blue exclusion assay; format: functional, cell-based
[4] = Cytotoxicity against mouse EAC cells after 48 hrs by MTT assay; format: functional, cell-based; details: Ehrlich
[5] = (§2) Cytotoxicity against mouse EAC cells after 48 hrs by LDH release assay; format: functional, cell-based; details: Ehrlich
[6] = Cytotoxicity against mouse EAC cells after 48 hrs by trypan blue exclusion assay; format: functional, cell-based; details: Ehrlich
[7] = tested on: Ehrlich; experiment: Antitumor activity against mouse EAC cells allografted in Swiss albino mouse assessed as condensed nucleus in tumor cells at 75 mg/kg, ip 3 doses administered every alternate days after three days of tumor growth; format: functional, organism-based; parameters: dose 75 mg/kg
[8] = tested on: Ehrlich; experiment: Antitumor activity against mouse EAC cells allografted in Swiss albino mouse assessed as DNA fragmentation in tumor cells at 75 mg/kg, ip 3 doses administered every alternate days after three days of tumor growth; format: functional, organism-based; parameters: dose 75 mg/kg
[9] = tested on: Ehrlich; experiment: Antitumor activity against mouse EAC cells allografted in Swiss albino mouse assessed as formation of apoptotic bodies in tumor cells at 75 mg/kg, ip 3 doses administered every alternate days after three days of tumor growth by Giemsa staining; format: functional, organism-based; parameters: dose 75 mg/kg
[10] = tested on: Ehrlich; experiment: Antitumor activity against mouse EAC cells allografted in Swiss albino mouse assessed as membrane blebbing of tumor cells at 75 mg/kg, ip 3 doses administered every alternate days after three days of tumor growth by Giemsa staining; format: functional, organism-based; parameters: dose 75 mg/kg
[11] = tested on: Ehrlich; experiment: Antitumor activity against mouse EAC cells allografted in Swiss albino mouse assessed as irregular tumor cell shape at 75 mg/kg, ip 3 doses administered every alternate days after three days of tumor growth by Giemsa staining; format: functional, organism-based; parameters: dose 75 mg/kg
[12] = tested on: Ehrlich; experiment: Antitumor activity against mouse EAC cells allografted in Swiss albino mouse assessed as tumor cell shrinkage at 75 mg/kg, ip 3 doses administered every alternate days after three days of tumor growth; format: functional, organism-based; parameters: dose 75 mg/kg
[13] = tested on: Chorioallantoic membrane; experiment: Ex vivo antiangiogenic activity in 2 days fertilized chicken embryo chorioallantoic membrane model assessed as inhibition of rVEGF165-induced angiogenesis at 10 uM after 72 hrs by photographic analysis relative to control; format: functional, tissue-based; details: Gallus gallus
[14] = tested on: Chorioallantoic membrane; experiment: In vivo antiangiogenic activity in 12 days fertilized chicken embryo chorioallantoic membrane model assessed as inhibition of rVEGF165-induced angiogenesis at 10 uM by photographic analysis relative to control; format: functional, organism-based; details: Gallus gallus
[15] = tested on: Mus musculus; experiment: Antiangiogenic activity in mouse EAC cells allografted Swiss albino mouse model assessed as decrease in microvessel density in peritoneum at 75 mg/kg, ip 3 doses administered every alternate days after three days of tumor growth by hematoxylin and eosin staining method; format: functional, organism-based; parameters: dose 75 mg/kg; details: Ehrlich
[16] = tested on: Mus musculus; experiment: Antiangiogenic activity in mouse EAC cells allografted Swiss albino mouse model assessed as decrease in peritoneal angiogenesis at 75 mg/kg, ip 3 doses administered every alternate days after three days of tumor growth; format: functional, organism-based; parameters: dose 75 mg/kg; details: Ehrlich
[17] = tested on: Mus musculus; experiment: Toxicity in Swiss albino mouse assessed as urea level at 75 mg/kg, ip administered for 10 days (reference value: 42 +/- 2.78 mg/dl); format: organism-based; parameters: dose 75 mg/kg, route intraperitoneal; details: in vivo, 240 h
[18] = tested on: Mus musculus; experiment: Toxicity in Swiss albino mouse assessed as creatinine level at 75 mg/kg, ip administered for 10 days (reference value: 0.59 +/- 1.05 mg/dl); format: organism-based; parameters: dose 75 mg/kg, route intraperitoneal; details: in vivo, 240 h
[19] = tested on: Mus musculus; experiment: Toxicity in Swiss albino mouse assessed as alkaline phosphatase level at 75 mg/kg, ip administered for 10 days (reference value: 128.55 +/- 2.55 IU/L); format: organism-based; parameters: dose 75 mg/kg, route intraperitoneal; details: in vivo, 240 h
[20] = tested on: Mus musculus; experiment: Toxicity in Swiss albino mouse assessed as change in liver morphology at 75 mg/kg, ip administered for 10 days relative to untreated control; format: organism-based; parameters: dose 75 mg/kg, route intraperitoneal; details: in vivo, 240 h
[21] = tested on: Mus musculus; experiment: Toxicity in Swiss albino mouse assessed as change in spleen morphology at 75 mg/kg, ip administered for 10 days relative to untreated control; format: organism-based; parameters: dose 75 mg/kg, route intraperitoneal; details: in vivo, 240 h
[22] = tested on: DLA; experiment: Antitumor activity against mouse DLA cells allografted in Swiss albino mouse assessed as tumor regression at 75 mg/kg, ip administered alternate days total of 10 doses measured on day 35 relative to untreated control; format: functional, organism-based; parameters: dose 75 mg/kg
[23] = tested on: Ehrlich; experiment: Antitumor activity against mouse EAC cells allografted in Swiss albino mouse assessed as inhibition of tumor growth at 75 mg/kg, ip 3 doses administered every alternate days after three days of tumor growth; format: functional, organism-based; parameters: dose 75 mg/kg
[24] = tested on: Ehrlich; experiment: Antitumor activity against ip dosed mouse EAC cells allografted in Swiss albino mouse assessed as decrease in body weight administered 3 doses every alternate days after three days of tumor growth; format: functional, organism-based
[25] = tested on: Ehrlich; experiment: Antitumor activity against mouse EAC cells allografted in Swiss albino mouse assessed as decrease in ascites fluid secretion at 75 mg/kg, ip 3 doses administered every alternate days after three days of tumor growth; format: functional, organism-based; parameters: dose 75 mg/kg
[26] = tested on: DLA; experiment: as §1; format: functional, cell-based
[27] = tested on: Ehrlich; experiment: as §2; format: functional, cell-based
[28] = Antitumor activity against mouse EAC cells allografted in Swiss albino mouse assessed as increase in life span at 75 mg/kg, ip 3 doses administered every alternate days after three days of tumor growth (reference value: 10 days); format: functional, Ehrlich; details: route intraperitoneal
[29] = Antitumor activity against mouse EAC cells allografted in Swiss albino mouse model assessed as increase in body weight at 75 mg/kg, ip 3 doses administered every alternate days after three days of tumor growth measured after 10 days; format: functional, Ehrlich; details: route intraperitoneal
[30] = Antitumor activity against mouse DLA cells allografted in Swiss albino mouse assessed as increase in lifespan at 75 mg/kg, ip administered alternate days total of 10 doses relative to untreated control; format: functional; details: route intraperitoneal
[31] = tested on: DLA; experiment: Antitumor activity against mouse DLA cells allografted in Swiss albino mouse assessed as inhibition of tumor growth measuring tumor volume at 75 mg/kg, ip administered alternate days total of 10 doses relative to untreated control; format: functional, organism-based; parameters: dose 75 mg/kg

SMILES: Cc1ccc(OCC(=O)NNC(=O)c2cc3ccccc3oc2=O)c(C(=O)c2ccccc2Cl)c1
- IC50 [1]: 54.4 µM
- IC50 [2]: 53.8 µM
- IC50 [3]: 54.8 µM
- IC50 [4]: 45.2 µM
- IC50 [5]: 47.6 µM
- IC50 [6]: 48.4 µM

SMILES: Cc1ccc(OCC(=O)NNC(=O)c2cc3ccccc3oc2=O)c(C(=O)c2ccccc2Br)c1
- Activity [7]: Active
- Activity [8]: Active
- Activity [9]: Active
- Activity [10]: Active
- Activity [11]: Active
- Activity [12]: Active
- inhibition [13]: Active
- inhibition [14]: Active
- Activity [15]: Active
- Activity [16]: Active
- Activity [17]: 39 mg/dL
- Activity [18]: 0.5 mg/dL
- Activity [19]: 132.65 IU/L
- Activity [20]: Non-toxic
- Activity [21]: Non-toxic
- Activity [22]: Active
- TGI [23]: Active
- Activity [24]: Dose-dependent effect
- Activity [25]: Active
- IC50 [1]: 10.6 µM
- Activity [26]: Dose-dependent effect
- IC50 [2]: 10 µM
- IC50 [3]: 10 µM
- IC50 [4]: 8 µM
- IC50 [5]: 9.4 µM
- Activity [27]: Dose-dependent effect
- IC50 [6]: 9 µM
- Time [28]: 23 days
- Activity [29]: 10%
- fold change (FC) [30]: 3
- TGI [31]: Active

SMILES: COc1ccc(C(=O)c2cc(C)ccc2OCC(=O)NNC(=O)c2cc3ccccc3oc2=O)cc1
- IC50 [1]: 43.4 µM
- IC50 [2]: 42 µM
- IC50 [3]: 43.5 µM
- IC50 [4]: 38.4 µM
- IC50 [5]: 41.2 µM
- IC50 [6]: 41.2 µM

SMILES: Cc1ccc(OCC(=O)NNC(=O)c2cc3ccccc3oc2=O)c(C(=O)c2ccc(Br)cc2)c1
- IC50 [1]: 95.3 µM
- IC50 [2]: 92.2 µM
- IC50 [3]: 95.5 µM
- IC50 [4]: 87.3 µM
- IC50 [5]: 89 µM
- IC50 [6]: 91.1 µM

SMILES: Cc1ccc(OCC(=O)NNC(=O)c2cc3ccccc3oc2=O)c(C(=O)c2cccc(Cl)c2)c1
- IC50 [1]: 67.4 µM
- IC50 [2]: 65.5 µM
- IC50 [3]: 68.6 µM
- IC50 [4]: 64.9 µM
- IC50 [5]: 65.4 µM
- IC50 [6]: 67.3 µM

SMILES: Cc1ccc(OCC(=O)NNC(=O)c2cc3ccccc3oc2=O)c(C(=O)c2ccccc2)c1
- IC50 [1]: 87 µM
- IC50 [2]: 86.4 µM
- IC50 [3]: 89.1 µM
- IC50 [4]: 78.4 µM
- IC50 [5]: 81.1 µM
- IC50 [6]: 86.5 µM

SMILES: Cc1ccc(OCC(=O)NNC(=O)c2cc3ccccc3oc2=O)c(C(=O)c2cccc(Br)c2)c1
- IC50 [1]: 69.8 µM
- IC50 [2]: 68.5 µM
- IC50 [3]: 71.9 µM
- IC50 [4]: 66.4 µM
- IC50 [5]: 68.1 µM
- IC50 [6]: 68.5 µM

SMILES: O=c1[nH]cc(F)c(=O)[nH]1 [FLUOROURACIL]
- IC50 [1]: 15.8 µM
- IC50 [2]: 15.7 µM
- IC50 [3]: 14.3 µM
- IC50 [4]: 14.3 µM
- IC50 [5]: 16.3 µM
- IC50 [6]: 16.4 µM

SMILES: Cc1ccc(C(=O)c2cc(C)ccc2OCC(=O)NNC(=O)c2cc3ccccc3oc2=O)cc1
- IC50 [1]: 87.2 µM
- IC50 [2]: 84.6 µM
- IC50 [3]: 87.3 µM
- IC50 [4]: 78.1 µM
- IC50 [5]: 81.4 µM
- IC50 [6]: 82.6 µM

SMILES: Cc1ccc(OCC(=O)NNC(=O)c2cc3ccccc3oc2=O)c(C(=O)c2ccc(F)cc2)c1
- IC50 [1]: 45.7 µM
- IC50 [2]: 43.4 µM
- IC50 [3]: 46.1 µM
- IC50 [4]: 39.7 µM
- IC50 [5]: 40.8 µM
- IC50 [6]: 43.4 µM

SMILES: Cc1ccc(OCC(=O)NNC(=O)c2cc3ccccc3oc2=O)c(C(=O)c2ccc(Cl)cc2)c1
- IC50 [1]: 60.4 µM
- IC50 [2]: 59.1 µM
- IC50 [3]: 61.6 µM
- IC50 [4]: 56.6 µM
- IC50 [5]: 58 µM
- IC50 [6]: 57.8 µM
